Experimental findings from EPA's ToxRefDB 2 are described below.

A word on the NOAEL: it is the highest tested level that showed no adverse finding. The term LOAEL denotes the lowest dose or exposure tested at which an adverse effect was seen.

In data set [1] the test system is rat. The settings on record: Multigenerational reproductive toxicity study, sprague dawley, Oral, Feed, dose end: 3 generation.
For data set [2], the system named is dog. The settings on record: Chronic toxicity, beagle, Oral, Feed, dose end: 12 month.
The test system of data set [3] is mouse. The note with it: Subchronic oral toxicity in rodents, b6c3f1, Gavage/Intubation, dose end: 17 week, group: systemic.
The subject of data set [4] is rat. The note with it: Subchronic oral toxicity in rodents, fischer, Gavage/Intubation, dose end: 17 week, group: systemic.
Data set [5] relates to rat. The settings on record: Multigenerational reproductive toxicity study, sprague dawley, Inhalation, Whole-Body, dose end: 2 generation.
In data set [6] the test system is rat. The note with it: Prenatal developmental toxicity study, sprague dawley, Inhalation, Whole-Body, dose end: 15 GD.
Data set [7] deals with rat. The note with it: Multigenerational reproductive toxicity study, Sprague Dawley, Oral, Gavage/Intubation, dose end: 2 generation.
For data set [8], the system named is rat. The settings on record: Multigenerational reproductive toxicity study, sprague dawley, Oral, Water, dose end: 3 generation.
The subject of data set [9] is mouse. The note with it: Chronic toxicity, other, Oral, Feed, dose end: 150 week, group: systemic.
Data set [10] has as its system rat. The note with it: Chronic toxicity, sprague dawley, Oral, Feed, dose end: 24 month, group: systemic.
Data set [11] deals with rat. The note with it: Multigenerational reproductive toxicity study, Oral, Gavage/Intubation, dose end: 2 generation.
Data set [12] concerns dog. The note with it: Chronic toxicity, beagle, Oral, Feed, dose end: 12 month, group: systemic.
Data set [13] has as its system rat. The settings on record: Subchronic oral toxicity in rodents, Gavage/Intubation, dose end: 91 day.
The test system of data set [14] is rat. The note with it: Chronic toxicity; sprague dawley; Oral; Feed; dose end: 52 week; group: systemic; systemic / pathology microscopic / liver / hypertrophy + systemic / pathology microscopic / thyroid gland / colloid content + systemic / ….
The mark [15] stands for this setting: group: offspring, systemic / in life observation / body weight / offspring (pup) weight.
[16] abbreviates: group: offspring, systemic / in life observation / body weight / offspring (pup) weight + developmental / offspring survival late / viability index / ….
The mark [17] stands for this setting: group: parental, systemic / in life observation / body weight / body weight.
[18] abbreviates: group: parental, systemic / in life observation / body weight / body weight + systemic / in life observation / food consumption / food consumption.
The mark [19] stands for this setting: group: cholinesterase, cholinesterase / cholinesterase / cholinesterase / plasma cholinesterase (che).
Where [20] appears, read: group: systemic, systemic / clinical chemistry / calcium / calcium + systemic / clinical chemistry / potassium / potassium + systemic / clinical chemistry / ….
The mark [21] stands for this setting: systemic / hematology / leukocyte (wbc) count differential / leukocyte (wbc) + systemic / hematology / lymphocyte / lymphocyte.
The mark [22] stands for this setting: systemic / hematology / leukocyte (wbc) count differential / leukocyte (wbc) + systemic / hematology / lymphocyte / lymphocyte + systemic / ….
Setting [23] is: group: offspring, systemic / in life observation / body weight / offspring (pup) weight gain + systemic / in life observation / body weight / offspring (pup) ….
Where [24] appears, read: group: reproductive, reproductive / offspring survival early / litter viability other / litter viability + reproductive / reproductive performance / ….
[25] abbreviates: group: developmental, systemic / in life observation / body weight / fetal weight.
Where [26] appears, read: group: maternal, systemic / in life observation / body weight / body weight + systemic / in life observation / body weight / body weight gain.
Setting [27] is: group: maternal, systemic / in life observation / body weight / body weight + systemic / in life observation / body weight / body weight gain + systemic / in….
Where [28] appears, read: group: offspring, developmental / developmental landmark / vaginal opening / vaginal opening + systemic / clinical chemistry / luteinizing hormone (lh) / ….
Setting [29] is: group: offspring, systemic / in life observation / clinical signs / swimming time trial.
Where [30] appears, read: group: parental, systemic / in life observation / clinical signs / salivation + systemic / organ weight / ovary / absolute + systemic / organ weight / ovary….
[31] abbreviates: group: reproductive, reproductive / offspring survival early / birth index / live birth index + reproductive / reproductive performance / implantations / ….
Where [32] appears, read: group: offspring, systemic / pathology microscopic / liver / nuclear alteration.
Where [33] appears, read: group: parental, systemic / pathology microscopic / liver / apoptosis.
[34] abbreviates: systemic / in life observation / body weight / body weight.
Setting [35] is: systemic / in life observation / body weight / body weight + systemic / organ weight / liver / absolute + systemic / organ weight / liver / ….
[36] abbreviates: group: offspring, developmental / developmental malformation / bone / wavy.
Setting [37] is: group: reproductive, reproductive / reproductive performance / gestational length / gestational length + reproductive / offspring survival early / dead fetuses….
Setting [38] is: systemic / in life observation / clinical signs / feces, discoloration.
Setting [39] is: group: maternal, reproductive / reproductive performance / estrous cycle / abnormal + reproductive / reproductive performance / estrous cycle / absent ….
[40] abbreviates: group: systemic, systemic / clinical chemistry / albumin / albumin + systemic / clinical chemistry / cholesterol / cholesterol + systemic / clinical ….
Setting [41] is: group: systemic, systemic / clinical chemistry / sodium / sodium + systemic / pathology microscopic / mammary gland / hyperplastic alveolar nodule + systemic….

Molecules are shown by their SMILES.

As for `CNC(=O)Oc1cccc2c1OC(C)(C)C2` [Carbofuran], the NEL in the data set with rat [1] (setting [15]) is 1 mg/kg/day; in the data set on rat [1] (setting [17]) it was less than 1 mg/kg/day; in the data set on dog [2] (setting [19]), 0.25 mg/kg/day; in the data set with dog [2] (setting [20]), 0.5 mg/kg/day. Besides, the NOAEL is 1 mg/kg/day with rat [1] (setting [15]), 1 mg/kg/day in the data set with rat [1] (setting [18]), 0.25 mg/kg/day in the data set on dog [2] (setting [19]) and no less than 12.5 mg/kg/day in the data set with dog [2] (setting [20]). Further, the LEL was determined as 5 mg/kg/day in the data set on rat [1] (setting [16]), 1 mg/kg/day in the data set with rat [1] (setting [17]), 0.5 mg/kg/day with dog [2] (setting [19]) and 12.5 mg/kg/day in the data set on dog [2] (setting [20]). In addition, the LOAEL is 5 mg/kg/day in the data set with rat [1] (setting [16]), 5 mg/kg/day with rat [1] (setting [18]), 0.5 mg/kg/day in the data set with dog [2] (setting [19]) and greater than 12.5 mg/kg/day in the data set with dog [2] (setting [20]).

As for `c1ccccc1` [Benzene], in the data set with mouse [3] (setting [21]), the LEL was 50 mg/kg/day. Moreover, in the data set on mouse [3] (setting [22]), the LOAEL is greater than 600 mg/kg/day, the NEL was determined as 25 mg/kg/day and the no observed adverse effect level (NOAEL) is no less than 600 mg/kg/day. Also, in the data set on rat [4] (setting [21]), the LEL stood at 25 mg/kg/day and the NEL is less than 25 mg/kg/day. Also, in the data set with rat [4] (setting [22]), the LOAEL was greater than 600 mg/kg/day and the NOAEL is no less than 600 mg/kg/day.

For `C1CO1` [Ethylene oxide], the LEL in the data set on rat [5] (setting [23]) came out at 33 ppm; in the data set with rat [5] (setting [17]), 33 ppm; in the data set on rat [5] (setting [24]) it was 33 ppm; with rat [6] (setting [25]) it was 50 ppm; in the data set with rat [6] (setting [26]), 125 ppm. Besides, the LOAEL is 33 ppm in the data set on rat [5] (setting [23]); 33 ppm in the data set with rat [5] (setting [17]); 33 ppm in the data set with rat [5] (setting [24]); 50 ppm in the data set with rat [6] (setting [25]); 125 ppm in the data set on rat [6] (setting [26]). Also, the NEL was 10 ppm in the data set on rat [5] (setting [23]); 10 ppm in the data set on rat [5] (setting [17]); 10 ppm with rat [5] (setting [24]); less than 50 ppm with rat [6] (setting [25]); 50 ppm with rat [6] (setting [27]). The no-observed-adverse-effect level (NOAEL) with rat [5] (setting [23]) was 10 ppm; in the data set on rat [5] (setting [17]), 10 ppm; in the data set on rat [5] (setting [24]), 10 ppm; with rat [6] (setting [25]) it was less than 50 ppm; in the data set with rat [6] (setting [27]), 50 ppm.

As for `CCCCCCCCCc1ccccc1O` [Nonylphenol (mixed)], the lowest-observed-adverse-effect level (LOAEL) in the data set with rat [7] (setting [28]) was greater than 50 mg/kg/day; in the data set with rat [7] (setting [30]) it was greater than 50 mg/kg/day; with rat [7] (setting [31]), greater than 50 mg/kg/day; in the data set with rat [8] (setting [32]) it was greater than 1.25 mg/kg/day; in the data set with rat [8] (setting [33]) it was greater than 1.25 mg/kg/day. For the same compound, the NOAEL with rat [7] (setting [28]) was no less than 50 mg/kg/day; in the data set on rat [7] (setting [30]), no less than 50 mg/kg/day; in the data set on rat [7] (setting [31]) it was no less than 50 mg/kg/day; in the data set with rat [8] (setting [32]), no less than 1.25 mg/kg/day; in the data set on rat [8] (setting [33]), no less than 1.25 mg/kg/day. For the same compound, the LEL was 2 mg/kg/day in the data set on rat [7] (setting [29]); 50 mg/kg/day in the data set with rat [7] (setting [30]); 50 mg/kg/day in the data set with rat [7] (setting [31]); 1.25 mg/kg/day with rat [8] (setting [32]); 1.25 mg/kg/day in the data set with rat [8] (setting [33]). Besides, the NEL in the data set with rat [7] (setting [29]) was less than 2 mg/kg/day; with rat [7] (setting [30]), 10 mg/kg/day; in the data set on rat [7] (setting [31]) it was 10 mg/kg/day; in the data set with rat [8] (setting [32]) it was less than 1.25 mg/kg/day; with rat [8] (setting [33]), less than 1.25 mg/kg/day.

Regarding `CCOC(=O)NC(=S)Nc1ccccc1NC(=S)NC(=O)OCC` [Thiophanate], the NEL in the data set on mouse [9] (systemic / pathology microscopic / ovary / cyst) amounted to 60 mg/kg/day; in the data set with rat [10] (setting [34]) it was 10 mg/kg/day. The results for the LOAEL with mouse [9] (systemic / pathology microscopic / testes / hypospermatogenesis) and with rat [10] (setting [35]) were 300 mg/kg/day and 50 mg/kg/day, respectively. Besides, the NOAEL in the data set with mouse [9] (systemic / pathology microscopic / testes / hypospermatogenesis + systemic / pathology microscopic / liver / fatty change) is 60 mg/kg/day; in the data set on rat [10] (setting [34]), 10 mg/kg/day. Besides, the results for the LEL in the data set with mouse [9] (systemic / pathology microscopic / testes / hypospermatogenesis + systemic / pathology microscopic / liver / fatty change + systemic / …) and with rat [10] (setting [35]) were 300 mg/kg/day and 50 mg/kg/day, respectively.

As to `COc1ccc(C(=O)c2c(C)n(CCN3CCOCC3)c3ccccc23)cc1` [Pravadoline], in the data set on rat [11] (setting [36]), the LEL worked out at 300 mg/kg/day, the LOAEL is greater than 300 mg/kg/day, the NEL is 100 mg/kg/day and the NOAEL was no less than 300 mg/kg/day. This compound also returned an NEL in the data set with rat [11] (group: reproductive, reproductive / reproductive performance / gestational length / gestational length) of 100 mg/kg/day. In addition, in the data set on rat [11] (setting [37]), the LEL worked out at 300 mg/kg/day, the LOAEL is greater than 300 mg/kg/day and the NOAEL was no less than 300 mg/kg/day.

Take `CC1(C)C(=O)N(Cl)C(=O)N1Br` [Bromo-3-chloro-5,5-dimethylhydantoin]: in the data set on dog [12] (setting [38]), the LEL worked out at 120 mg/kg/day and the NEL is less than 120 mg/kg/day. The LOAEL in the data set with dog [12] (systemic / pathology microscopic / adrenal gland / hypertrophy) is 1510 mg/kg/day. Also, in the data set with dog [12] (systemic / pathology microscopic / adrenal gland / hypertrophy + systemic / in life observation / clinical signs / feces, discoloration + …), the NOAEL was found to be 342 mg/kg/day.

For the compound `CS(=O)(=O)O.Cc1cc(CCN2CCN(c3nsc4ccccc34)CC2)cc2c1NC(=O)CC2(C)C`, in the data set with rat [13] (setting [39]), the LEL was 10 mg/kg/day, the lowest observed adverse effect level (LOAEL) is greater than 60 mg/kg/day, the NEL was less than 10 mg/kg/day and the NOAEL is no less than 60 mg/kg/day. Moreover, in the data set on rat [13] (setting [40]), the LOAEL is greater than 60 mg/kg/day and the NOAEL is no less than 60 mg/kg/day. For the same compound, in the data set with rat [13] (setting [41]), the LEL was 10 mg/kg/day and the NEL is less than 10 mg/kg/day.

With `C/C=C/C(=O)Oc1ccccc1[N+](=O)[O-].CCCCCCCC.O=NO` [Dinocap], in the data set with rat [14], the LEL stood at 121 mg/kg/day, the LOAEL worked out at 121 mg/kg/day, the NEL stood at 11.4 mg/kg/day and the NOAEL is 11.4 mg/kg/day.
